# Results published in PubChem BioAssay (NCI).
# Where “and” joins values, the source holds several entries; their conditions need not be identical. Identical values can stand only once.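 Cells were grown in 96-well plates and exposed to each compound for 48 hours at five concentrations; endpoints were interpolated linearly between bracketing concentrations, or set to the highest concentration if not reached. GI50: concentration for 50% inhibition of growth. TGI is the concentration that stops growth completely.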
# Columns and labels:
# Assay in all cases: NCI tumour cell line growth inhibition, 48 h
# OVCAR-4 ovarian = tested on: OVCAR-4 ovarian
# NCI-H23 lung = tested on: NCI-H23 lung
# SNB-75 CNS = tested on: SNB-75 CNS
# RPMI-8226 leukemia = tested on: RPMI-8226 leukemia
# SF-295 CNS = tested on: SF-295 CNS
# IGROV1 ovarian = tested on: IGROV1 ovarian
# SN12C renal = tested on: SN12C renal
# RXF 393 renal = tested on: RXF 393 renal
# NCI-H522 lung = tested on: NCI-H522 lung
# SK-MEL-5 melanoma = tested on: SK-MEL-5 melanoma
# MALME-3M melanoma = tested on: MALME-3M melanoma
# UO-31 renal = tested on: UO-31 renal
# SK-MEL-28 melanoma = tested on: SK-MEL-28 melanoma
# LOX IMVI melanoma = tested on: LOX IMVI melanoma
# A549 NSCLC = tested on: A549 NSCLC
# NCI-H226 lung = tested on: NCI-H226 lung
# OVCAR-3 ovarian = tested on: OVCAR-3 ovarian
# CAKI-1 renal = tested on: CAKI-1 renal
# SF-268 CNS = tested on: SF-268 CNS
# A498 renal = tested on: A498 renal
# EKVX NSCLC = tested on: EKVX NSCLC
# NCI/ADR-RES ovarian = tested on: NCI/ADR-RES ovarian
# SNB-19 CNS = tested on: SNB-19 CNS
# OVCAR-8 ovarian = tested on: OVCAR-8 ovarian
# CCRF-CEM leukemia = tested on: CCRF-CEM leukemia
# KM12 colon = tested on: KM12 colon
# HOP-62 NSCLC = tested on: HOP-62 NSCLC
# MCF7 breast = tested on: MCF7 breast
# OVCAR-5 ovarian = tested on: OVCAR-5 ovarian
# MDA-MB-231 breast = tested on: MDA-MB-231 breast
# SW-620 colon = tested on: SW-620 colon
# ACHN renal = tested on: ACHN renal
# MDA-MB-435 = tested on: MDA-MB-435
# UACC-257 melanoma = tested on: UACC-257 melanoma
# DU-145 prostate = tested on: DU-145 prostate
# MDA-N = tested on: MDA-N
# PC-3 prostate = tested on: PC-3 prostate
# U251 CNS = tested on: U251 CNS
# SF-539 CNS = tested on: SF-539 CNS
# NCI-H460 lung = tested on: NCI-H460 lung
# K-562 leukemia = tested on: K-562 leukemia
# HL-60(TB) leukemia = tested on: HL-60(TB) leukemia
# COLO 205 colon = tested on: COLO 205 colon
# BT-549 breast = tested on: BT-549 breast
# SR leukemia = tested on: SR leukemia
# HCT-116 colon = tested on: HCT-116 colon
# HT29 colon = tested on: HT29 colon
# TK-10 renal = tested on: TK-10 renal
# HS 578T breast = tested on: HS 578T breast
# 786-0 renal = tested on: 786-0 renal
# MOLT-4 leukemia = tested on: MOLT-4 leukemia
# T-47D breast = tested on: T-47D breast
# SK-MEL-2 melanoma = tested on: SK-MEL-2 melanoma
# HCT-15 colon = tested on: HCT-15 colon
# HCC-2998 colon = tested on: HCC-2998 colon
# SK-OV-3 ovarian = tested on: SK-OV-3 ovarian
# UACC-62 melanoma = tested on: UACC-62 melanoma
# M14 melanoma = tested on: M14 melanoma
# HOP-92 NSCLC = tested on: HOP-92 NSCLC
smiles,measurement,setting,value
CC(=O)OCC1OC(c2nc3ccccc3s2)=CC(OC(C)=O)C1OC(C)=O (configuration not stated),TGI,OVCAR-4 ovarian,> 100000 nM
same,TGI,NCI-H23 lung,> 100000 nM
same,TGI,SNB-75 CNS,> 100 µM
same,TGI,RPMI-8226 leukemia,> 100000 nM
same,TGI,SF-295 CNS,> 100000 nM
same,TGI,IGROV1 ovarian,> 100000 nM
same,TGI,SN12C renal,> 100 µM
same,TGI,RXF 393 renal,> 100000 nM
same,TGI,NCI-H522 lung,> 100 µM
same,TGI,SK-MEL-5 melanoma,> 100000 nM
same,TGI,MALME-3M melanoma,> 100000 nM
same,TGI,UO-31 renal,> 100000 nM
same,TGI,SK-MEL-28 melanoma,> 100000 nM
same,TGI,LOX IMVI melanoma,> 100000 nM
same,TGI,A549 NSCLC,> 100000 nM
same,TGI,NCI-H226 lung,> 100 µM
same,TGI,OVCAR-3 ovarian,> 100 µM
same,TGI,CAKI-1 renal,> 100000 nM
same,TGI,SF-268 CNS,> 100000 nM
same,TGI,A498 renal,> 100 µM
same,TGI,EKVX NSCLC,> 100000 nM
same,TGI,NCI/ADR-RES ovarian,> 100000 nM
same,TGI,SNB-19 CNS,> 100000 nM
same,TGI,OVCAR-8 ovarian,> 100000 nM
same,TGI,CCRF-CEM leukemia,> 100000 nM
same,TGI,KM12 colon,> 100000 nM
same,TGI,HOP-62 NSCLC,> 100000 nM
same,TGI,MCF7 breast,> 100 µM
same,TGI,OVCAR-5 ovarian,> 100 µM
same,TGI,MDA-MB-231 breast,> 100000 nM
same,TGI,SW-620 colon,> 100 µM
same,TGI,ACHN renal,> 100000 nM
same,TGI,MDA-MB-435,> 100000 nM
same,TGI,UACC-257 melanoma,> 100 µM
same,TGI,DU-145 prostate,> 100000 nM
same,TGI,MDA-N,> 100000 nM
same,TGI,PC-3 prostate,> 100000 nM
same,TGI,U251 CNS,> 100000 nM
same,TGI,SF-539 CNS,> 100000 nM
same,TGI,NCI-H460 lung,> 100000 nM
same,TGI,K-562 leukemia,> 100000 nM
same,TGI,HL-60(TB) leukemia,> 100 µM
same,TGI,COLO 205 colon,> 100000 nM
same,TGI,BT-549 breast,> 100 µM
same,TGI,SR leukemia,> 100 µM
same,TGI,HCT-116 colon,> 100000 nM
same,TGI,HT29 colon,> 100000 nM
same,TGI,TK-10 renal,> 100 µM
same,TGI,HS 578T breast,> 100000 nM
same,TGI,786-0 renal,> 100000 nM
COC1/C=C/C(C)C(C(C)C(OC)C(C)CCC(=O)C(C)C(C/C=C/N(C)C=O)OC)OC(=O)/C=C/C=C(\C)CC(OC)CC2=CC(=O)O[C@H](C2)C(C)C(OC)CC(OC)/C=C/C(C)C(OC)C1 (some centres not stated),GI50,OVCAR-4 ovarian,10.8 nM
same,GI50,NCI-H23 lung,91.9 nM
same,TGI,NCI-H23 lung,499 nM and 171 nM
same,TGI,RPMI-8226 leukemia,19.4 nM
same,GI50,SF-295 CNS,27.7 nM
same,TGI,SF-295 CNS,159 nM and 16.5 nM
same,GI50,IGROV1 ovarian,15.9 nM
same,TGI,IGROV1 ovarian,53 nM and 34.1 nM
same,GI50,MOLT-4 leukemia,164 nM
same,TGI,MOLT-4 leukemia,110 nM
same,GI50,SN12C renal,143 nM
same,TGI,SN12C renal,47.5 µM
same,GI50,RXF 393 renal,37.8 nM
same,TGI,RXF 393 renal,141 nM and 37.6 nM
same,GI50,T-47D breast,168 nM
same,TGI,T-47D breast,488 nM
same,GI50,SK-MEL-5 melanoma,113 nM
same,GI50,MALME-3M melanoma,21.3 nM
same,TGI,MALME-3M melanoma,58.2 nM and 31.5 nM
same,GI50,UO-31 renal,29.4 nM
same,TGI,UO-31 renal,94.3 nM and 26.5 nM
same,TGI,SK-MEL-2 melanoma,39.9 nM
same,GI50,HCT-15 colon,14.2 nM
same,TGI,HCT-15 colon,270 nM and 32.9 nM
same,GI50,SK-MEL-28 melanoma,41.3 nM
same,TGI,SK-MEL-28 melanoma,298 nM and 32.6 nM
same,GI50,A549 NSCLC,18.5 nM
same,TGI,A549 NSCLC,271 nM and 284 nM
same,GI50,NCI-H226 lung,21.5 nM
same,TGI,NCI-H226 lung,0.129 µM
same,GI50,OVCAR-3 ovarian,12.7 nM
same,TGI,OVCAR-3 ovarian,0.0307 µM
same,GI50,CAKI-1 renal,6.82 nM
same,TGI,CAKI-1 renal,30.8 nM and 11.7 nM
same,GI50,SF-268 CNS,40 nM
same,TGI,SF-268 CNS,485 nM and 612 nM
same,GI50,HCC-2998 colon,4.6 nM
same,GI50,A498 renal,17.6 nM
same,TGI,A498 renal,0.0508 µM
same,GI50,EKVX NSCLC,123 nM
same,TGI,EKVX NSCLC,869 nM and 362 nM
same,GI50,NCI/ADR-RES ovarian,102 nM
same,GI50,SNB-19 CNS,52 nM
same,TGI,SNB-19 CNS,212 nM and 90.4 nM
same,GI50,OVCAR-8 ovarian,22.7 nM
same,TGI,OVCAR-8 ovarian,76.8 nM and 196 nM
same,GI50,CCRF-CEM leukemia,21.8 nM
same,TGI,CCRF-CEM leukemia,36.7 nM
same,GI50,KM12 colon,6.96 nM
same,GI50,HOP-62 NSCLC,17.8 nM
same,TGI,HOP-62 NSCLC,44.9 nM and 16.9 nM
same,GI50,OVCAR-5 ovarian,119 nM
same,TGI,OVCAR-5 ovarian,0.714 µM
same,GI50,MDA-MB-231 breast,11.4 nM
same,TGI,MDA-MB-231 breast,58.4 nM
same,GI50,SW-620 colon,19.8 nM
same,TGI,SW-620 colon,6.95 µM
same,GI50,ACHN renal,28.2 nM
same,GI50,SK-OV-3 ovarian,38.2 nM
same,TGI,SK-OV-3 ovarian,229 nM and 29.7 nM
same,GI50,MDA-MB-435,30.3 nM
same,TGI,MDA-MB-435,472 nM and 311 nM
same,TGI,UACC-257 melanoma,0.0257 µM
same,GI50,DU-145 prostate,123 nM
same,GI50,MDA-N,47.2 nM
same,TGI,MDA-N,1110 nM
same,GI50,UACC-62 melanoma,51.5 nM
same,TGI,PC-3 prostate,38.7 nM and 41.7 nM
same,GI50,U251 CNS,12.2 nM
same,TGI,U251 CNS,28.9 nM
same,GI50,NCI-H460 lung,10 nM
same,TGI,NCI-H460 lung,118 nM and 97 nM
same,GI50,K-562 leukemia,1.05 nM
same,GI50,COLO 205 colon,18.4 nM
same,TGI,COLO 205 colon,131 nM
same,GI50,BT-549 breast,108 nM
same,GI50,SR leukemia,3.11 nM
same,GI50,M14 melanoma,21.5 nM
same,TGI,M14 melanoma,68.6 nM
same,GI50,HOP-92 NSCLC,16.1 nM
same,TGI,HOP-92 NSCLC,48.9 nM and 31.3 nM
same,GI50,HCT-116 colon,6.6 nM
same,TGI,HCT-116 colon,115 nM and 14.8 nM
same,GI50,HT29 colon,23.6 nM
same,GI50,TK-10 renal,17.4 nM
same,TGI,TK-10 renal,0.0729 µM
same,GI50,HS 578T breast,29.7 nM
same,TGI,HS 578T breast,71 nM and 60.1 nM
same,GI50,786-0 renal,15.5 nM
same,TGI,786-0 renal,35.6 nM
CN(C)CCCNc1ccc([N+](=O)[O-])c2nc3ccccc3c(N)c12,TGI,OVCAR-4 ovarian,595 nM
same,TGI,NCI-H23 lung,2780 nM
same,TGI,RPMI-8226 leukemia,2140 nM
same,TGI,SF-295 CNS,1530 nM
same,TGI,IGROV1 ovarian,6470 nM
same,TGI,MOLT-4 leukemia,3420 nM
same,TGI,SN12C renal,7.37 µM
same,TGI,RXF 393 renal,2290 nM
same,TGI,SK-MEL-5 melanoma,2440 nM
same,TGI,MALME-3M melanoma,> 10000 nM
same,TGI,UO-31 renal,2970 nM
same,TGI,SK-MEL-2 melanoma,2690 nM
same,TGI,HCT-15 colon,1700 nM
same,TGI,SK-MEL-28 melanoma,> 10000 nM
same,TGI,LOX IMVI melanoma,1630 nM
same,TGI,A549 NSCLC,2370 nM
same,TGI,NCI-H226 lung,> 10 µM
same,TGI,OVCAR-3 ovarian,5.05 µM
same,TGI,CAKI-1 renal,> 10000 nM
same,TGI,SF-268 CNS,4920 nM
same,TGI,A498 renal,6.92 µM
same,TGI,EKVX NSCLC,2350 nM
same,TGI,NCI/ADR-RES ovarian,1840 nM
same,TGI,SNB-19 CNS,3230 nM
same,TGI,CCRF-CEM leukemia,2990 nM
same,TGI,KM12 colon,1530 nM
same,TGI,HOP-62 NSCLC,> 10000 nM
same,TGI,MCF7 breast,> 10 µM
same,TGI,OVCAR-5 ovarian,> 10 µM
same,TGI,MDA-MB-231 breast,2530 nM
same,TGI,SW-620 colon,1.63 µM
same,TGI,ACHN renal,1610 nM
same,TGI,SK-OV-3 ovarian,987 nM
same,TGI,MDA-MB-435,2260 nM
same,TGI,UACC-257 melanoma,> 10 µM
same,TGI,DU-145 prostate,1750 nM
same,TGI,MDA-N,2180 nM
same,TGI,UACC-62 melanoma,> 10 µM
same,TGI,PC-3 prostate,1690 nM
same,TGI,U251 CNS,2120 nM
same,TGI,SF-539 CNS,1820 nM
same,TGI,NCI-H460 lung,1380 nM
same,TGI,K-562 leukemia,2270 nM
same,TGI,BT-549 breast,4.75 µM
same,TGI,SR leukemia,> 10 µM
same,TGI,M14 melanoma,1950 nM
same,TGI,HOP-92 NSCLC,5080 nM
same,TGI,HCT-116 colon,1330 nM
same,TGI,HT29 colon,1720 nM
same,TGI,TK-10 renal,> 10 µM
same,TGI,HS 578T breast,> 10000 nM
same,TGI,786-0 renal,1800 nM
